Assay [1] has as its target S. aureus CrtM (dehydrosqualene synthase) (Staphylococcus aureus, UniProt A9JQL9). In words: CrtM enzyme inhibition assay.
Assay [2] deals with staphyloxanthin (STX) biosynthesis in S. aureus. In words: Staphyloxanthin biosynthesis inhibition assay. Type of assay: cell-based, Staphylococcus aureus. As for the experimental part:
The question next arises: how potent are these compounds in inhibiting STX biosynthesis in S. aureus? We thus treated S. aureus bacteria with serially diluted compounds at 37° C. for 3 days, after which the STX pigment was extracted with methanol. Optical densities were measured at 450 nm and IC50 values for inhibition of pigment formation for each compound were calculated using a standard dose-response curve. The rank ordered IC50 values of the 38 compounds investigated are shown in Table 7 and dose-response curves of representative compounds are shown in FIG. 2.
The S. aureus strain used was the WT clinical isolate (Pig1) (4). S. aureus was cultured in THB (1 mL) in the presence of inhibitor compounds for 72 h, in duplicate. Cells were then centrifuged and washed twice with PBS. STX was extracted with MeOH and the O.D. was determined at 450 nm using a Perkin Elmer MBA 2000 (Norwalk, Conn.) spectrophotometer.

[3] abbreviates: read-out: CrtM IC50 values, Table 4.
Where [4] appears, read: read-out: CrtM enzyme experimental activity IC50, Table 5.
Where [5] appears, read: Table 7, S. aureus, 37° C., 3 days, read-out: Staphyloxanthin IC50.
[6] abbreviates: Staphylococcus aureus, read-out: IC50(STX).
The mark [7] stands for this setting: Staphylococcus aureus, 72 h, read-out: Staphyloxanthin IC50.
[8] abbreviates: Staphylococcus aureus, read-out: IC50 (STX).

Counter-ions that a name gives are not always drawn. Like-named read-outs stand apart in the source and are kept apart here. Bounds are passed on as bounds.

Sequence of S. aureus CrtM (dehydrosqualene synthase) (A9JQL9 whole entry): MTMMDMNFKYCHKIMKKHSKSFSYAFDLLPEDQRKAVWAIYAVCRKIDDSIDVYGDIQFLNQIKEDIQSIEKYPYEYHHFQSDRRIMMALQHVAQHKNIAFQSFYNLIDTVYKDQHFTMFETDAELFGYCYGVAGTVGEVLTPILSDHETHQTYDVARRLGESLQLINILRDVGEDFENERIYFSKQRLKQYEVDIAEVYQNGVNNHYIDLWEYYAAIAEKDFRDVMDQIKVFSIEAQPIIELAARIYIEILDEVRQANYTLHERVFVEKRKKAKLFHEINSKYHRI

Turning to “1-Phosphono-4-[3-(2-fluorophenoxy)phenyl]butylsulfonic acid tripotassium salt [Compound 21]”, the “CrtM enzyme experimental activity pIC50” value in assay [1] (Table 5) is reported as 5.16. The results for the IC50 in assay [1] (setting [3]), in assay [1] (setting [4]) and in assay [2] (setting [5]) were 6.9 µM, 6.9 µM and 0.51 µM, respectively.

For the compound “1-Phosphono-4-[3-(4-hydroxyphenoxy)phenyl]butylsulfonic acid tripotassium salt [Compound 27]”, the IC50 in assay [2] (setting [5]) worked out at 6.8 µM.

`O=C(CP(=O)(O)O)N(O)CCCc1cccc(Oc2ccccc2)c1` [compound 808]: the IC50 came to 67.5 µM in assay [1]; 0.108 µM in assay [2] (setting [6]); 0.11 µM in assay [2] (Staphylococcus aureus, read-out: IC50(STX), cell activity).

`O=C(O)CC(=O)NCCCc1cccc(Oc2ccccc2)c1` [compound 888]: in assay [1], the IC50 is more than 1500 µM.

For the compound `O=C(CP(=O)(O)O)NCCCc1cccc(Oc2ccc(Cl)cc2)c1` [compound 926], the IC50 in assay [1] came out at 15.3 µM; in assay [2] (setting [6]), 0.028 µM.

As for `O=P(O)(O)CP(=O)(O)CCCCc1cccc(Oc2ccccc2)c1` [compound 885], the figures for the IC50 in assay [1] and in assay [2] (setting [6]) were 45 µM and 0.44 µM, respectively.

As for `Cc1ccc(-c2ccc(CCCC(P(=O)(O)O)S(=O)(=O)O)cc2)cc1` (stereo not drawn) [Compound 11, 1-Phosphono-4-[4-(4-methylphenyl)phenyl]butylsulfonic acid tripotassium salt], the values for the IC50 in assay [1] (setting [4]) and in assay [2] (setting [7]) were 24.5 µM and 0.18 µM, respectively.

As to `O=P(O)(O)CS(=O)(=O)NCCCc1cccc(Oc2ccccc2)c1` [compound 841], the IC50 is 1640 µM in assay [1] and more than 500 µM in assay [2] (setting [6]).

On to `O=C(CCCCc1ccc(Oc2ccccc2)cc1)CP(=O)(O)O` [compound 839], for which the IC50 stood at 1520 µM in assay [1] and 28 µM in assay [2] (setting [6]).

For `CP(=O)([O-])C(CCCc1ccc(-c2ccccc2)cc1)P(=O)([O-])[O-].[K+].[K+].[K+]` (stereo not drawn) [Compound 4, dipotassium salt], the concentration for half-maximal inhibition (IC50) in assay [2] (setting [7]) turned out to be 1.4 µM.

For “1-Phosphono-4-[3-(benzofuran-5-yloxy)phenyl]butylsulfonic acid tripotassium salt [Compound 32]”, the “CrtM enzyme experimental activity pIC50” value in assay [1] (Table 5) is recorded as 5.67. Besides, the half-maximal inhibitory concentration (IC50) in assay [1] (setting [3]) came out at 2.1 µM; in assay [1] (setting [4]), 2.1 µM; in assay [2] (setting [5]), 0.015 µM.

As for `O=C(CP(=O)(O)O)NCCc1cccc(Oc2ccccc2)c1` [compound 897], the IC50 in assay [1] was found to be 323 µM; in assay [2] (setting [6]), 3 µM.

As for `O=P([O-])([O-])[C@H](CCCc1cccc(Oc2ccccc2)c1)S(=O)(=O)[O-].[K+].[K+].[K+]` [Compound (S)-1, (1S)-1-Phosphono-4-(3-phenoxyphenyl)butylsulfonic acid tripotassium salt], the “more active than its (R)-enantiomer in CrtM inhibition” value in assay [1] (fold, versus (R)-1) was approximately 30 ×. Moreover, the IC50 in assay [1] (read-out: IC50 against CrtM) worked out at 1.4 µM; in assay [2] (setting [7]) it was 0.05 µM.

Take `CC(C)(C)c1ccc(Oc2cccc(CCCC(P(=O)(O)O)S(=O)(=O)O)c2)cc1` (stereo not drawn) [Compound 25, 1-Phosphono-4-[3-(4-tert-butylphenoxy)phenyl]butylsulfonic acid tripotassium salt]: the 50% inhibitory concentration (IC50) in assay [1] (read-out: IC50 (CrtM), Table 1) was found to be 10.5 µM; in assay [2] (setting [7]), 0.021 µM; in assay [2] (setting [8]), 0.021 µM.

For the compound `O=C(CP(=O)(O)O)NCCCc1ccc(-c2ccccc2)cc1` [compound 846], it took 165 µM to reach half-maximal inhibition in assay [1] (IC50).

For the compound `O=P(O)(O)C(CCCc1cccc(Oc2ccc(C(F)(F)F)cc2)c1)S(=O)(=O)O` (stereo not drawn) [Compound 7, 1-Phosphono-4-[3-(4-trifluoromethylphenoxy)phenyl]butylsulfonic acid tripotassium salt], the half-inhibitory concentration (IC50) in assay [1] (setting [3]) worked out at 7.2 µM; in assay [2] (setting [7]), 0.04 µM.

As to `CCCCc1ccc(-c2ccc(CCCC(P(=O)([O-])[O-])S(=O)(=O)[O-])cc2)cc1.[K+].[K+].[K+]` (stereo not drawn) [Compound 12, 1-Phosphono-4-[4-(4-butylphenyl)phenyl]butylsulfonic acid tripotassium salt], the 50% inhibitory concentration (IC50) in assay [2] (setting [7]) worked out at 0.16 µM.

Consider `O=C(CP(=O)(O)O)NCCCc1cccc(Oc2ccccc2)c1` [compound 830], for which the results for the half-maximal inhibitory concentration (IC50) in assay [1] and in assay [2] (setting [6]) were 8.9 µM and 0.008 µM, respectively.

Turning to `O=C(CP(=O)(O)O)N(O)Cc1cccc(-c2cccc(-c3ccccc3)c2)c1` [compound 810], the concentration for half-maximal inhibition (IC50) in assay [1] stood at 597 µM; in assay [2] (setting [6]), 158 µM.

For `O=P(O)(O)C(CCCc1cccc(Oc2ccc(Cc3ccccc3)cc2)c1)S(=O)(=O)O` (stereo not drawn) [Compound 26, 1-Phosphono-4-[3-(4-benzylphenoxy)phenyl]butylsulfonic acid tripotassium salt], the IC50 in assay [1] (read-out: IC50 (CrtM), Table 1) amounted to 13.5 µM; in assay [2] (setting [7]) it was 0.049 µM; in assay [2] (setting [8]) it was 0.049 µM.

Take “1-Phosphono-4-[3-(3,5-dichlorophenoxy)phenyl]butylsulfonic acid tripotassium salt [Compound 34]”: the “CrtM enzyme experimental activity pIC50” value in assay [1] (Table 5) came to 5.2. In addition, the IC50 in assay [1] (setting [3]) was 6.3 µM; in assay [1] (setting [4]), 6.3 µM; in assay [2] (setting [5]), 0.051 µM.

“1-Phosphono-4-[3-(3-trifluoromethylphenoxy)phenyl]butylsulfonic acid tripotassium salt [Compound 22]”: in assay [1] (Table 5), the “CrtM enzyme experimental activity pIC50” value came to 5.01. Besides, the IC50 in assay [1] (setting [3]) amounted to 9.8 µM; in assay [1] (setting [4]), 9.8 µM; in assay [2] (setting [5]), 0.074 µM.

Turning to “1-Phosphono-4-[3-(3-fluorophenoxy)phenyl]butylsulfonic acid tripotassium salt [Compound 20]”, in assay [1] (Table 5), the “CrtM enzyme experimental activity pIC50” value was 5.66. For the same compound, the 50% inhibitory concentration (IC50) in assay [1] (setting [3]) is 2.2 µM; in assay [1] (setting [4]) it was 2.2 µM; in assay [2] (setting [5]) it was 0.22 µM.

`CN(CCCc1cccc(Oc2ccccc2)c1)C(=O)CP(=O)(O)O` [compound 848]: the concentration for half-maximal inhibition (IC50) in assay [1] came out at 193 µM; in assay [2] (setting [6]), 8.6 µM.

On to `O=C(CP(=O)(O)O)NCCCc1cccc(Oc2ccc(Cl)c(Cl)c2)c1` [compound 886], for which the half-inhibitory concentration (IC50) in assay [1] worked out at 7 µM; in assay [2] (setting [6]), 0.04 µM.

Take `O=C(CP(=O)(O)O)NCCCCc1cccc(Oc2ccccc2)c1` [compound 898]: the results for the IC50 in assay [1] and in assay [2] (setting [6]) were 1080 µM and 35 µM, respectively.

`CCCc1ccc(Oc2cccc(CCCC(P(=O)([O-])[O-])S(=O)(=O)[O-])c2)cc1.[K+].[K+].[K+]` (stereo not drawn) [Compound 6, 1-Phosphono-4-[3-(4-propylphenoxy)phenyl]butylsulfonic acid tripotassium salt] registered a Ki in assay [1] of approximately 0.005 µM. Besides, in assay [1] (fold more active, versus 1), the “as active as 1 in CrtM inhibition” value is recorded as approximately 4 ×. Besides, the IC50 turned out to be 2.2 µM in assay [1] (read-out: IC50 (CrtM), Table 1); 0.093 µM in assay [2] (setting [7]); 0.1 µM in assay [2] (setting [8]); 0.093 µM in assay [2] (Staphylococcus aureus, read-out: IC50 for STX biosynthesis).

In the case of `CCn1c2ccccc2c2cc(CCCC(P(=O)(O)O)S(=O)(=O)O)ccc21` (stereo not drawn) [Compound 19, 1-Phosphono-4-(9-ethylcarbazole-3-yl)butylsulfonic acid tripotassium salt], the IC50 in assay [2] (setting [7]) worked out at 263 µM.

With `O=P(O)(O)[C@@H](CCCc1cccc(Oc2ccccc2)c1)S(=O)(=O)O` [Compound (R)-1, (1R)-1-Phosphono-4-(3-phenoxyphenyl)butylsulfonic acid tripotassium salt], in assay [2] (setting [7]), the IC50 turned out to be 0.31 µM.

Regarding `O=C(CP(=O)(O)O)N(O)CCCc1cccc(Oc2ccc(Cl)c(Cl)c2)c1` [compound 927], the concentration for half-maximal inhibition (IC50) amounted to 67.2 µM in assay [1] and 0.042 µM in assay [2] (setting [6]).

With `O=P([O-])([O-])C(CCCc1cccc(Oc2ccccc2Cc2ccccc2)c1)S(=O)(=O)[O-].[K+].[K+].[K+]` (stereo not drawn) [Compound 8, 1-Phosphono-4-[3-(2-benzylphenoxy)phenyl]butylsulfonic acid tripotassium salt], in assay [1] (Table 5), the “CrtM enzyme experimental activity pIC50” value is listed as 4.43. In addition, the “less active than 1 in CrtM inhibition” value in assay [1] (fold, versus 1) was approximately 5 ×. Besides, the concentration for half-maximal inhibition (IC50) in assay [2] (setting [7]) amounted to 0.019 µM.

As to `O=C(NO)C(CCCc1cccc(Oc2ccccc2)c1)P(=O)(O)O` (stereo not drawn) [compound 809], the half-inhibitory concentration (IC50) in assay [1] came to 859 µM; in assay [2] (setting [6]), 4.23 µM.

On to “1-Phosphono-4-[3-(4-phenoxyphenoxy)phenyl]butylsulfonic acid tripotassium salt [Compound 28]”, for which the IC50 in assay [2] (setting [5]) was determined as 0.1 µM.

Consider `O=C(CS(=O)(=O)O)NCCCc1cccc(Oc2ccccc2)c1` [compound 884], for which the IC50 amounted to 171 µM in assay [1] and 15 µM in assay [2] (setting [6]).

For `O=P(O)(O)C(CCCc1cccc(Nc2ccccc2)c1)S(=O)(=O)O` (stereo not drawn) [Compound 16, 1-Phosphono-4-(3-phenylaminophenyl)butylsulfonic acid tripotassium salt], the figures for the half-inhibitory concentration (IC50) in assay [1] (read-out: IC50 against CrtM) and in assay [2] (setting [7]) were 43.7 µM and 0.5 µM, respectively.

For the compound “1-Phosphono-4-[3-(4-fluorophenoxy)-6-methoxy-phenyl]butylsulfonic acid tripotassium salt [Compound 36]”, in assay [2] (setting [5]), the half-inhibitory concentration (IC50) was 13.8 µM.

Consider `O=P([O-])([O-])C(CCCc1ccc(Oc2ccccc2)cc1)S(=O)(=O)[O-].[K+].[K+].[K+]` (stereo not drawn) [Compound 18, 1-Phosphono-4-(4-phenoxyphenyl)butylsulfonic acid tripotassium salt], for which, in assay [2] (setting [7]), the 50% inhibitory concentration (IC50) amounted to 0.19 µM.

For the compound `O=P([O-])([O-])C(CCCc1ccc(-c2ccccc2)cc1)S(=O)(=O)[O-].[K+].[K+].[K+]` (stereo not drawn) [Compound 9, 1-Phosphono-4-(4-biphenyl)butylsulfonic acid tripotassium salt], the IC50 in assay [2] (setting [7]) worked out at 0.35 µM.

Source of the values: patent publication US20120022024A1, “ANTI-BACTERIAL COMPOSITIONS AND METHODS INCLUDING TARGETING VIRULENCE FACTORS OF STAPHYLOCOCCUS AUREUS” (priority 2009, published 2012).
